Values after ≈ are worked out from the molar mass of the structure shown. Read-outs that look alike come from different tables or passages of the source. Positions of bridges follow the written chain, without caps; N, C: chain ends. Non-standard residues stand in square brackets, D forms with d. Residues, ends and D or L forms follow the SMILES beside them. *: point of attachment. Ileψ(thiazoline)Cys = CC[C@H](C)[C@H](N)C1=N[C@H](C(=O)*)CS1; dOrn = NCCC[C@@H](N)C(=O)O
Experiments:
[1] = tested on: A. teichomyceticus; details: for MIC, teicoplanin-induced: Actinoplanes teichomyceticus + 10 µg/ml teicoplanin; for MIC, non-induced: Actinoplanes teichomyceticus non-induced
Description: (§1) MICs were measured on solid media, since the standard broth dilution method used in unicellular bacteria to determine MICs by turbidity is compromised in mycelial actinomycetes by the formation of multicellular aggregates and by the coexistence of cells in different physiological states (e.g., vegetative mycelium, aerial mycelium, and spores).
(§2) Cryovials of WCBs were thawed at room temperature and used to inoculate a VSP medium for Nonomuraea spp. and Actinoplanes spp. or YEME for Streptomyces spp. in the presence or the absence of GPAs. The strains were grown to exponential phase (approximately 72 h) at 28 °C with shaking. The mycelium was harvested by centrifugation, suspended in 0.9% (w/v) NaCl, and fragmented by sonication with a Vibracell Albra sonicator 400 W [26]. […] The plates were dried and then incubated at 28 °C. MIC values were determined as the lowest antibiotic concentrations that inhibited visible growth after 10 days of incubation.

[2] = tested on: S. coelicolor ∆vanRS; assay: MIC on solid media, S. coelicolor ∆vanRS; format: cell-based, Streptomyces coelicolor; details: MS agar plates, 10^7 CFU sonicated hyphae, 28 °C, 10 days, average of three independent experiments
Description: as §1, §2

[3] = tested on: N. gerenzanensis; details: for MIC, non-induced: Nonomuraea gerenzanensis non-induced
Description: as §1, §2

[4] = tested on: N. gerenzanensis pST30; assay: MIC on solid media, N. gerenzanensis pST30; format: cell-based, Nonomuraea gerenzanensis; details: N. gerenzanensis pST30 (vanRSHAX cluster from A. teichomyceticus); V0.1 agar plates, 28 °C, 10 days; average of three independent experiments
Description: as §1, §2

[5] = tested on: S. coelicolor
Description: as §1, §2

[6] = tested on: VanX activity in N. gerenzanensis pST30; format: cell-based, Nonomuraea gerenzanensis; details: for Growth time within which VanX activity responds to the inducer: N. gerenzanensis pST30, subinhibitory concentrations (vancomycin 10, teicoplanin 1.75, A40926 10 µg/mL), teicoplanin to less extent; for Effect on VanX activity (cytoplasmic fraction): N. gerenzanensis pST30 grown with 10 µg/mL vancomycin, 1.75 µg/mL teicoplanin, 10 µg/mL A40926
Description: (§3) The D,D-dipeptidase activity of VanX (Figure 1) and the D,D-carboxypeptidase activity of VanY (Figure 2) were measured by determining the amount of D-Ala released from the hydrolysis of the D-Ala-D-Ala dipeptide and of the Nε-acetyl-L-Lys-D-Ala-D-Ala tripeptide, respectively. D-Ala release was measured by using a D-amino acid oxidase coupled to a peroxidase [25, 31].
(§4) VanX-specific activity is defined as the number of nanomoles of D-Ala released by the hydrolysis of D-Ala-D-Ala dipeptide at 37 °C per minute per milligram of protein contained in cytoplasmic fractions.
(§5) S. coelicolor A3(2), its ΔvanRS mutant, A. teichomyceticus ATCC 31121, N. gerenzanensis ATCC 39727, and N. gerenzanensis pST30 were grown as described above. […] Antibiotics were added to the cultures at the moment of inoculation using concentrations calculated as the half-point of MICs (see below and Table 1), except for vancomycin (10 µg/mL) in S. coelicolor A3(2), as reported by Kwun et al. [10].
Cells were harvested by centrifugation at 3600× g for 20 min at 4 °C, and then they were suspended in 2 mL of 0.9% (w/v) NaCl per gram of cells (wet weight). All of the following manipulations were conducted at 0 to 4 °C. The mycelium was fragmented by sonication with a Sonics Vibracell VCX 130. Sonication was carried out for 5 min on ice, with cycles of 30 s with an amplitude of 90% (90% of 60 Hz), with breaks of 10 s. The samples were then centrifuged at 39,000× g for 15 min, and the supernatants (cytoplasmic fractions) were collected. An alkaline extraction of the pellets (cell debris and membrane fractions) was carried out by adapting a protocol developed previously for extracting membrane-bound proteins [25, 36]. The sedimented pellets were resuspended in ice-cold distilled water containing proteinase inhibitors (0.19 mg/mL phenylmethanesulfonyl fluoride and 0.7 µg/mL pepstatin, both purchased from Sigma-Aldrich), and then, immediately before centrifugation (28,000× g for 15 min at 4 °C), the pH was adjusted to 12 by adding an appropriate volume of 2.5 N NaOH. Immediately after centrifugation, the supernatants were neutralized to pH 7 by adding 0.5 M sodium acetate (pH 5.4). Enzymatic activities in the supernatant (cytoplasmic fractions) and in the resuspended insoluble fractions (membranes) were assayed as reported previously [36] by measuring the release of D-Ala from commercially available dipeptide (D-Ala-D-Ala, 10 mM; Sigma-Aldrich) and tripeptide (Nε-acetyl-L-Lys-D-Ala-D-Ala, 10 mM; Sigma-Aldrich).

[7] = tested on: VanY activity in N. gerenzanensis pST30; format: cell-based, Nonomuraea gerenzanensis; details: for Effect on VanY activity (membrane extracts): N. gerenzanensis pST30 grown with subinhibitory concentrations of GPAs added at inoculum
Description: To determine the correlation between the antimicrobial activity of the GPAs and their ability to induce the van resistance system in actinomycetes, we followed the enzyme activities corresponding to either VanX or VanY peptidases in cells growing in liquid culture in the presence or absence of subinhibitory concentrations of GPAs (Figure 1 and Figure 2). The D,D-dipeptidase activity of VanX (Figure 1) and the D,D-carboxypeptidase activity of VanY (Figure 2) were measured by determining the amount of D-Ala released from the hydrolysis of the D-Ala-D-Ala dipeptide and of the Nε-acetyl-L-Lys-D-Ala-D-Ala tripeptide, respectively. D-Ala release was measured by using a D-amino acid oxidase coupled to a peroxidase [25, 31].
Figure 2 VanY activity in N. gerenzanensis and N. gerenzanensis pST30 grown in the absence (dotted line) or in the presence (continuous line) of subinhibitory concentrations of GPAs added at the moment of inoculum (see material and methods). VanY-specific activity is defined as the number of nanomoles of D-Ala released by the hydrolysis of Nε-acetyl-L-Lys-D-Ala-D-Ala tripeptide at 37 °C per minute per milligram of protein contained in membrane extracts. […] The values represent the averages from three independent experiments, with a standard deviation of <5%.
as §5
Cells were harvested by centrifugation at 3600× g for 20 min at 4 °C, and then they were suspended in 2 mL of 0.9% (w/v) NaCl per gram of cells (wet weight). All of the following manipulations were conducted at 0 to 4 °C. The mycelium was fragmented by sonication with a Sonics Vibracell VCX 130. […]

[8] = tested on: VanX activity in S. coelicolor; details: vancomycin 10 µg/mL
Description: as §3, §4, §5
Cells were harvested by centrifugation at 3600× g for 20 min at 4 °C, and then they were suspended in 2 mL of 0.9% (w/v) NaCl per gram of cells (wet weight). All of the following manipulations were conducted at 0 to 4 °C. The mycelium was fragmented by sonication with a Sonics Vibracell VCX 130. Sonication was carried out for 5 min on ice, with cycles of 30 s with an amplitude of 90% (90% of 60 Hz), with breaks of 10 s. […]

[9] = A. teichomyceticus, V0.1 agar plates, 10^7 CFU sonicated hyphae, 28 °C, 10 days, average of three independent experiments
[10] = after 72h of growth, average of three independent experiments
[11] = after 48h of growth, average of three independent experiments
[12] = N. gerenzanensis, V0.1 agar plates, 10^7 CFU sonicated hyphae, 28 °C, 10 days, average of three independent experiments
[13] = Nonomuraea gerenzanensis + 2 µg/ml A40926, after 48h of growth, average of three independent experiments
[14] = Nonomuraea gerenzanensis + 2 µg/ml A40926, after 72h of growth, average of three independent experiments
[15] = S. coelicolor, MS agar plates, 10^7 CFU sonicated hyphae, 28 °C, 10 days, average of three independent experiments

| Molecule | Minimal inhibitory concentration (MIC) ([1]; 72 h) | Minimal inhibitory concentration (MIC) [2] | Minimal inhibitory concentration (MIC) ([3]; 72 h) | Minimal inhibitory concentration (MIC) [4] | Minimal inhibitory concentration (MIC) ([5]; 72 h) | Growth time within which VanX activity responds to the inducer [6] | Effect on VanX activity (cytoplasmic fraction) [6] | Minimal inhibitory concentration (MIC) [1, 9] | MIC, teicoplanin-induced [1, 10] | MIC, non-induced [1, 11] | MIC, non-induced [1, 10] | Minimal inhibitory concentration (MIC) [3, 12] | MIC, A40926-induced [3, 13] | MIC, A40926-induced [3, 14] | MIC, non-induced [3, 11] | MIC, non-induced [3, 10] | Effect on VanY activity (membrane extracts) [7] | Growth time at which induced VanY activity reaches its maximum value ([7]; N. gerenzanensis pST30 induced by vancomycin) | Minimal inhibitory concentration (MIC) [5, 15] | Change of level of VanX enzyme activity within the first 24 h from the induction [8] |
| --- | --- | --- | --- | --- | --- | --- | --- | --- | --- | --- | --- | --- | --- | --- | --- | --- | --- | --- | --- | --- |
| CC[C@H](C)[C@H](N)C1=N[C@H](C(=O)N[C@@H](CC(C)C)C(=O)N[C@H](CCC(=O)O)C(=O)N[C@H](C(=O)N[C@H]2CCCCNC(=O)[C@H](CC(N)=O)NC(=O)[C@@H](CC(=O)O)NC(=O)[C@H](Cc3cnc[nH]3)NC(=O)[C@@H](Cc3ccccc3)NC(=O)[C@H]([C@@H](C)CC)NC(=O)[C@@H](CCCN)NC2=O)[C@@H](C)CC)CS1 [Bacitracin] ({Ileψ(thiazoline)Cys}-L[dE]IK[dOrn]I[dF]H[dD]N; lactam 4-C (inferred); N-terminus assumed) | 20 ± 1.15 µg/mL (≈ 14.1 µM) | 0.9 ± 0.035 µg/mL (≈ 0.633 µM) | 20 ± 1.3 µg/mL (≈ 14.1 µM) | 20 ± 1.2 µg/mL (≈ 14.1 µM) | 0.9 ± 0.05 µg/mL (≈ 0.633 µM) | – | – | – | – | – | – | – | – | – | – | – | – | – | – | – |
| CN[C@H](CC(C)C)C(=O)N[C@H]1C(=O)N[C@@H](CC(N)=O)C(=O)N[C@H]2C(=O)N[C@H]3C(=O)N[C@H](C(=O)N[C@H](C(=O)O)c4cc(O)cc(O)c4-c4cc3ccc4O)[C@H](O)c3ccc(c(Cl)c3)Oc3cc2cc(c3O[C@@H]2O[C@H](CO)[C@@H](O)[C@H](O)[C@H]2O[C@H]2C[C@](C)(N)[C@H](O)[C@H](C)O2)Oc2ccc(cc2Cl)[C@H]1O [Vancomycin] | – | 1.25 ± 0.03 µg/mL (≈ 0.863 µM) | – | 20 ± 1.05 µg/mL (≈ 13.8 µM) | – | ≤ 48 h | induced | 90 ± 4.2 µg/mL (≈ 62.1 µM) | 90 ± 2.1 µg/mL | 90 ± 2.5 µg/mL (≈ 62.1 µM) | 90 ± 1.6 µg/mL (≈ 62.1 µM) | 20 ± 1.6 µg/mL (≈ 13.8 µM) | 32 ± 0.9 µg/mL | 32 ± 0.8 µg/mL | 20 ± 0.8 µg/mL (≈ 13.8 µM) | 20 ± 0.5 µg/mL (≈ 13.8 µM) | significantly induced | 96 h | >100 µg/mL | doubled |
| Ramoplanin | – | 0.9 ± 0.025 µg/mL | – | 20 ± 1.1 µg/mL | – | – | – | 20 ± 1 µg/mL | – | – | – | 20 ± 1.2 µg/mL | – | – | – | – | – | – | 0.9 ± 0.045 µg/mL | – |
| Teicoplanin | – | 1.5 ± 0.02 µg/mL | – | 2.75 ± 0.15 µg/mL | – | ≤ 48 h | induced | 20 ± 1.5 µg/mL | 20±0.85 g/ml | 20±1 g/ml | 20±0.9 g/ml | 0.9 ± 0.01 µg/mL | 1.2±0.03 g/ml | 1.2±0.02 g/ml | 0.9±0.01 g/ml | 0.9±0.015 g/ml | comparable to the basal level | – | 1.5 ± 0.025 µg/mL | – |

— article PMC6022977, “Specificity of Induction of Glycopeptide Antibiotic Resistance in the Producing Actinomycetes” (Antibiotics, 2018)
